# In US20100285149A1, “NOVEL TETRAHYDROPYRIDOTHIOPHENES” (priority 2006, published 2010):
# Legend:
# [1] = tested on: RKO (RKOp27) human colon adenocarcinoma cells; assay: Alamar Blue cell viability assay, proliferating (uninduced) RKO p27 cells; type: cell-based; details: anti-proliferative/cytotoxic activity, 72 hours incubation, no Ponasterone A
# Experimental: The anti-proliferative/cytotoxic activity of the compounds described herein, can be tested on subclones of RKO (RKOp27) human colon adenocarcinoma cells (Schmidt et al., Oncogene 19, 2423-2429; 2000) using the Alamar Blue cell viability assay (described in O'Brien et al. Eur J Biochem 267, 5421-5426, 2000). The compounds are dissolved as 20 mM solutions in dimethylsulfoxide (DMSO) and subsequently diluted in semi-logarithmic steps. DMSO dilutions are further diluted 1:100 into Dulbecco's modified Eagle's medium (DMEM) containing 10% fetal calf serum to a final concentration twice as much as the final concentration in the test. RKO subclones are seeded into 96 well flat bottom plates at a density of 5000 cells per well in a volume of 50 μl per well. 24 hours after seeding the 50 μl each of the compound dilutions in DMEM medium are added into each well of the 96 Well plate. Each compound dilution is tested as quadruplicates. Wells containing untreated control cells are filled with 50 μl DMEM medium containing 1% DMSO. The cells are then incubated with the substances for 72 hours at 37° C. in a hunified atmosphere containing 5% carbon dioxide. To determine the viability of the cells, 10 μl of an Alamar Blue solution (Biosource) are added and the fluorescence is measured at an extinction of 544 nm and an emission of 590 nm. For the calculation of the cell viability the emission value from untreated cells is set as 100% viability and the emission rates of treated cells are set in relation to the values of untreated cells. Viabilities are expressed as % values.
# The corresponding IC50 values of the compounds for anti-proliferative/cytotoxic activity are determined from the concentration-effect curves.
# (§1) Representative IC50 values for anti-proliferation/cytotoxicity determined in the mentioned assays follow from the following table A, in which the numbers of the compound correspond to the numbers of the examples.
# [2] = tested on: RKO colon adenocarcinoma cells (RKOp27) arrested by the expression of ectopic p27Kip1; assay: Alamar Blue cell viability assay, RKO p27 cells arrested by Ponasterone A induced p27Kip1; type: cell-based; details: Homo sapiens, anti-proliferative/cytotoxic activity, 72 hours incubation, 10 μM Ponasterone A
# Experimental: To determine the cell cycle specific mode of action, subclones of RKO colon adenocarcinoma cells (RKOp27 or RKOp21 as described by Schmidt et al. in Oncogene 19, 2423-2429; 2000) are seeded into 96 well flat bottom plates at a density of 15000 cells per well in a volume of 50 μl per well in DMEM growth medium with 10% FCS containing 10 μM Ponasterone A. 24 hours after seeding the 50 μl each of the compound dilutions in DMEM medium are added into each well of the 96 Well plate. Each compound dilution is tested as quadruplicates. Wells containing untreated control cells are filled with 50 μl DMEM medium containing 1% DMSO. The cells are then incubated with the substances for 72 hours at 37° C. in a humidified athmosphere containing 5% carbon dioxide. To determine the viability of the cells, 10 μl of an Alamar Blue solution (Biosource) are added and the fluorescence was measured at an extinction of 544 nm and an emission of 590 nm. For the calculation of the cell viability the emission value from untreated cells is set as 100% viability and the emission rates of treated cells are set in relation to the values of untreated cells. Viabilities are expressed as % values. Viability is compared of proliferating cells grown in the absence of the inducer Ponasterone A, versus viability of cells arrested by the expression of ectopic p27Kip1 induced by Ponasterone A.
# as §1
SMILES,IC50 [1] [nM],IC50 [2] [nM]
"CCNC(=O)N1CCc2c(sc(NC(=O)C3CC3c3ccccc3OC)c2C#N)C1 (racemic) [Example 116, 3-Cyano-2-({1-[(RS)-2-(2-methoxy-phenyl)-cyclopropyl]-methanoyl}-amino)-4,7-dihydro-5H-thieno[2,3-c]pyridine-6-carboxylic acid ethylamide]",≤ 500,≥ 100000
"CCNC(=O)N1CCc2c(sc(NC(=O)C3CC3c3cccc(OC)c3)c2C#N)C1 (racemic) [Example 117, 3-Cyano-2-({1-[(RS)-2-(3-methoxy-phenyl)-cyclopropyl]-methanoyl}-amino)-4,7-dihydro-5H-thieno[2,3-c]pyridine-6-carboxylic acid ethylamide]",≤ 500,≥ 60000
"COc1cccc(CCC(=O)Nc2sc3c(c2C#N)CCN(C(=O)NCCc2cn(C)cn2)C3)c1 [Example 71, 3-Cyano-2-[3-(3-methoxy-phenyl)-propanoylamino]-4,7-dihydro-5H-thieno[2,3-c]pyridine-6-carboxylic acid [2-(1-methyl-1H-imidazol-4-yl)-ethyl]-amide]",500 to 2000,≥ 100000
"COc1ccccc1CCC(=O)Nc1sc2c(c1C#N)CCN(C(=O)NCCc1cn(C)cn1)C2 [Example 105, 3-Cyano-2-[3-(2-methoxy-phenyl)-propanoylamino]-4,7-dihydro-5H-thieno[2,3-c]pyridine-6-carboxylic acid [2-(1-methyl-1H-imidazol-4-yl)-ethyl]-amide]",≤ 500,≥ 100000
"CCNC(=O)N1CCc2c(sc(NC(=O)CCc3ccccc3OCC)c2C#N)C1 [Example 106, 3-Cyano-2-[3-(2-ethoxy-phenyl)-propanoylamino]-4,7-dihydro-5H-thieno[2,3-c]pyridine-6-carboxylic acid ethylamide]",≤ 500,≥ 100000
"CCNC(=O)N1CCc2c(sc(NC(=O)CCc3cc(C)ccc3OC)c2C#N)C1 [Example 107, 3-Cyano-2-[3-(2-methoxy-5-methyl-phenyl)-propanoylamino]-4,7-dihydro-5H-thieno[2,3-c]pyridine-6-carboxylic acid ethylamide]",≤ 500,≥ 100000
"CCNC(=O)N1CCc2c(sc(NC(=O)CCc3cccc(OC)c3)c2C#N)C1 [Example 108, 3-Cyano-2-[3-(3-methoxy-phenyl)-propanoylamino]-4,7-dihydro-5H-thieno[2,3-c]pyridine-6-carboxylic acid ethylamide]",≤ 500,≥ 100000
"CCNC(=O)N1CCc2c(sc(NC(=O)CCc3ccco3)c2C#N)C1 [Example 109, 3-Cyano-2-(3-furan-2-yl-propanoylamino)-4,7-dihydro-5H-thieno[2,3-c]pyridine-6-carboxylic acid ethylamide]",≤ 500,≥ 100000
"CCNC(=O)N1CCc2c(sc(NC(=O)CC(C)c3cccc(OC)c3)c2C#N)C1 (stereo not drawn) [Example 110, 3-Cyano-2-[3-(3-methoxy-phenyl)-butanoylamino]-4,7-dihydro-5H-thieno[2,3-c]pyridine-6-carboxylic acid ethylamide]",≤ 500,≥ 100000
"CCNC(=O)N1CCc2c(sc(NC(=O)CC(C)c3ccccc3OC)c2C#N)C1 (stereo not drawn) [Example 111, 3-Cyano-2-[3-(2-methoxy-phenyl)-butanoylamino]-4,7-dihydro-5H-thieno[2,3-c]pyridine-6-carboxylic acid ethylamide]",≤ 500,≥ 60000
"CCNC(=O)N1CCc2c(sc(NC(=O)CC(C)c3ccccc3OCC)c2C#N)C1 (stereo not drawn) [Example 112, 3-Cyano-2-[3-(2-ethoxy-phenyl)-butanoylamino]-4,7-dihydro-5H-thieno[2,3-c]pyridine-6-carboxylic acid ethylamide]",≤ 500,≥ 100000
"CCNC(=O)N1CCc2c(sc(NC(=O)CCc3ccccc3OC)c2C#N)C1 [Example 113, 3-Cyano-2-[3-(2-methoxy-phenyl)-propanoylamino]-4,7-dihydro-5H-thieno[2,3-c]pyridine-6-carboxylic acid ethylamide]",≤ 500,≥ 100000
"CCNC(=O)N1CCc2c(sc(NC(=O)CC(C)c3ccccc3)c2C#N)C1 (stereo not drawn) [Example 114, 3-Cyano-2-(3-phenyl-butanoylamino)-4,7-dihydro-5H-thieno[2,3-c]pyridine-6-carboxylic acid ethylamide]",≤ 500,≥ 100000
"CCNC(=O)N1CCc2c(sc(NC(=O)CCc3ccccc3)c2C#N)C1 [Example 115, 3-Cyano-2-(3-phenyl-propanoylamino)-4,7-dihydro-5H-thieno[2,3-c]pyridine-6-carboxylic acid ethylamide]",≤ 500,≥ 100000
"CCNC(=O)N1CCc2c(sc(NC(=O)CCC3CCCCC3)c2C#N)C1 [Example 118, 3-Cyano-2-(3-cyclohexyl-propanoylamino)-4,7-dihydro-5H-thieno[2,3-c]pyridine-6-carboxylic acid ethylamide]",≤ 500,≥ 100000
